Two molecules from patent US6627769B2, “RGD-analog non-peptidic molecules having anti-adhesive, anti-migration and anti-proliferative effects” (Provincia Italiana Della Congregzaione dei Figli …, priority 2001, dated 2003) can be followed below.

Where two headings read alike, the source gives them in different places.

For data set [1], the system named is RASMC proliferation stimulated with PDGF-BB. The data set can be described thus: Proliferation assay (PDGF-BB stimulated RASMC, cell counting). Conditions: FIG. 3.
Method: (§1) For this test rat vascular smooth muscle cells (RASMC) primary cultures, obtained from adult male Wistar Rats, were used according to well known procedures (Facchiano et al., 2000, J. Cell Sci., 113(16), 2855-63).
(§2) Proliferation assay was performed, following standard procedures (Facchiano, et al., 2000, Cell Sci., 113(16), 2855-63), on 6-well plates (1×10^5 cells/plate) allowed to grow for 24 hours in DMEM supplemented with 10% Fetal Calf Serum (FCS) at 37° C. in 5% CO2. Medium was replaced with starvation medium containing either DMEM-0.1% BSA for 24 hours. Subsequently the starvation medium was replaced with fresh medium containing either 0.1% BSA alone or 0.1% BSA with PDGF-BB in the presence or absence of the RGD-analog. Every assay was carried out at different time intervals and cells were harvested and counted with hemacytometer.
In data set [2] the test system is RASMC migration toward PDGF-BB. The data set can be described thus: Migration assay in modified Boyden chambers toward PDGF-BB. The format is cell-based, rat. To be noted: FIG. 2; PDGF-BB 10 ng/ml as chemoattractant. The procedure: Rat vascular smooth muscle cells (RASMC) were placed in the upper chamber of the Boyden apparatus. […] Cell migrated on the bottom face of the filters were counted at 400× magnification. Fifteen fields were counted for each filter and the average number of cells/field was calculated. Experiments were performed at least 4 times in duplicate.

In data set [3] the test system is RASMC proliferation stimulated with PDGF-BB.
Method: as §1, §2

With `N=C(N)NCCC[C@H](NC(=O)[C@@H](Cc1ccccc1)NC(=O)[C@H](CCCNC(=N)N)NC(=O)CC(=O)N[C@@H](CC(=O)O)C(N)=O)C(N)=O` [non-peptidic RGD-analog, H2N—RfRmD—NH2], the “anti-proliferative effect (inhibition of RASMC proliferation)” value in data set [1] (100 ng/ml, stimulated for 48 hours with PDGF-BB (10 ng/ml)) was “marked anti-proliferative effect”. Besides, the “toxic effects on cells” value in data set [1] (added to cells in the absence of PDGF-BB) is “do not show toxic effects”. For the same molecule, in data set [2], the “inhibition of RASMC migration toward PDGF-BB gradient” value is on record as “in a dose-dependent manner”.

In the case of `NC(N)=NCCC[C@H](N)C(=O)NCC(=O)N[C@@H](CC(=O)O)C(=O)N[C@@H](CO)C(=O)O` [RGDS], the “toxic effects on cells” value in data set [3] is on record as “do not show toxic effects”.
